# Results as given in patent US11260050B2, “Combination of cotinine plus antioxidant for treatment-resistant depression and correction of astrocytes functional deficit induced by depression and other neuropathological” (UNIVERSIDAD SAN SEBASTIAN, priority 2017, dated 2022).
# How the values were obtained:
# [1] = tested on: mice subjected to restraint stress; assay: Light-dark box after restraint stress (Example 1, Experiment 1); assay type: in vivo, C57BL/6 mice; settings: RS mice treated with cotinine; p=0.035
# Protocol: (§1) Mice were treated immediately after the 21 days of immobilization stress (6 h/day) until euthanasia. Mice (n=5-8/condition) received daily treatments with 1. PBS (phosphate buffer saline, pH 7.4) via intranasal (2×12 μl/nostril), 2. PBS via gavage (50 μl); 3. Cotinine dissolved in PBS via oral (gavage, (0.5 mg/kg; Cot 0.5); 4. Cotinine dissolved in PBS via intranasal (Cot IN, 10 mg/ml, 2×12 μl/nostril).
# (§2) To induce chronic stress, the restraint stress paradigm was used as previously described. Mice are immobilized in 50 ml falcon plastic tubes that were attached to mouse cages. The immobilization proceeded during 6 h from 9:00 AM to 3:00 PM in absence of treatments. Tubes have holes in the opposite side of the tube to allow the animal breathing and urination. Mice were almost completely immobilized for 6 h/day for 21 days after which they were permitted freely to move, eat and drink.
# Behavioral analysis was performed using the Any-maze® software (Stoelting CO, USA) to track the activity of animals. Mice were tested for depressive behavior, anxiety, locomotor activity and working memory using the Porsolt's test; Light-dark box (LDB) and the elevated plus Maze (EPM), open field (OF), and Novel object recognition (NOR), respectively.
# [2] = tested on: mice subjected to restraint stress; assay: Open field test after restraint stress (Example 1, Experiment 1); assay type: in vivo, C57BL/6 mice; settings: RS mice, IN cotinine 10 mg/ml, 25 min of testing; p=0.058
# Protocol: as §1, §2
# OF is used to monitor locomotor activity. […] Several parameters including, total distance traveled, speed, rearing behavior and time spent in the center and peripheral zones (20 cm×20 cm) are measured to assess locomotor activity and behavioral changes induced by stress.
# GFAP [3] = assay: GFAP immunoreactivity and GFAP+ cell density, hippocampus and frontal cortex (Example 2); assay type: in vivo, C57BL/6 male mice
# Protocol: Mice between 2-3 months of age after one week of acclimatization were randomly divided into two groups. Stressed mice were subjected to restraint stress. Control (non-restrained) mice were allowed to move freely during this period. After the stress exposure period, mice were divided into three experimental groups: 1) Non-restrained mice treated with vehicle (PBS, pH 7.4) serving as unstressed controls (n=8); 2) Restrained mice (RS) treated with vehicle (n=8); 3), RS mice treated with 24 μl of a cotinine solution (10 mg/ml in PBS, pH 7.4) via intranasal route of administration (n=6). Treatments were administered daily until euthanasia. After two weeks of treatments mice were behaviorally tested and euthanized (FIG. 10)
# For all protein analyses, mice were euthanized and brains removed. Each brain was divided into two hemispheres. The left hemisphere of brains was dissected out to collect the regions of interest and quickly frozen for later analyses. For the immunohistochemical (IHC) analysis the right hemisphere of each mouse brain was placed in 10% formalin in PBS pH 7.4 for 48 h and then embedded in paraffin. Each region of interest was located using Paxinos Atlas as a reference (Paxinos and Franklin, 2004), and serial […] of 4 μm (n≥5/mouse) were collected using the Microtome Leica RM 2125RT and mounted on silanized glass slides.
# The analysis of GFAP^+ cells was performed using tissue slices containing the ventral hippocampus (Approx. Bregma −4.08 mm, interaural 4.92 mm) and frontal cortex (Approx. Bregma 3.2 mm, interaural 1.54 mm). Sagittal sections of brains were collected in PBS and processed for GFAP immunoreactivity (IR). Brain slices were immersed in xylene and a decreasing graduation of ethanol baths for hydration. Then, slides were subjected to a standard process of antigenic recovery in buffer citrate pH=6 in a pressurized saucepan (Biocare Medical, Walnut Creek, Calif.) for 30 min. Next, slides were incubated with a solution of 3% hydrogen peroxide to block endogenous peroxidase for 5 min, washed with PBS, and blocked with a horse serum solution (Vectastain Elite ABC, Vector Laboratories, Burlingame, Calif., USA) for 10 min at room temperature (RT). Sections were washed in PBS and incubated for 1 hour (Franklin, 2001) at RT with an antibody against GFAP 1:100 (Sigma). After washing with PBS, sections were incubated with a biotinylated secondary antibody for 10 min. Then, sections were washed with PBS and incubated with the amplifier solution from the Vectastain Elite kit for 10 min at RT. The reaction was visualized using ImmunoDetector DAB (SB Bio Inc., Santa Barbara, Calif., USA). For counterstaining, sections were stained with hematoxylin for 30 seconds (sec), dehydrated in baths of ascending percentages of alcohol solutions and xylene, and mounted with synthetic resin.
# For the IR analysis, for each mouse, three digital images were randomly selected at 40× magnifications in the areas of interest (hippocampus and frontal cortex) (n=5-6/condition). […] The determination of the area of the immunolabeling was calculated delimiting the IR areas using the ImageJ software (National Institute of Health, Bethesda, […]., USA). For all analyses, GFAP^+ astrocytes were selected randomly from the frontal cortex and the CA1, CA3 and dentate gyrus regions of the hippocampus and quantified. […]
# GFAP [4] = assay: GFAP immunofluorescence, morphometric analysis and cell counting in the dentate gyrus (Example 3); assay type: in vivo, C57BL/6J mice; settings: restrained mice, oral co-treatment; vs vehicle-treated restrained mice
# Protocol: Mice after acclimatization and one week of handling were randomly divided into five groups (n=8/condition) and orally treated as follow: 1) control non-restrained mice treated with vehicle (PBS, pH 7.4); 2) restrained mice treated with vehicle; 3), restrained mice treated with a cotinine solution (5 mg/kg in PBS, pH 7.4) via gavage; 4) restrained mice treated with KO (143 mg/kg); 5) restrained mice treated with cotinine plus KO solution. Mice were started with treatments, the first day of restraint and continuously until euthanasia. Treatments were administered at the same time of the day, 30 min before restraint.
# For the immunohistochemistry (IHC) and fluorescent IHC (F-IHC) analysis the right hemisphere of each mouse brain was placed in 4% paraformaldehyde in PBS pH 7.4 at 4° C. for 24 h. The tissues were embedded in 2% agarose molds for vibratome sectioning.
# For the F-IHC, samples were washes 3 times for 7 min with Tris-buffered saline (TBS), pH 7.8. The primary antibody anti-GFAP (1:50, BioSB) was diluted in diluent buffer, containing TBS supplemented with 1% bovine serum albumin (BSA) and 0.2% Triton X-100, and incubated with the tissue sections overnight (ON) at 4° C. […] The samples were counterstained with Hoechst (1:1000) and mounted with fluorescence mounting medium (Prolong, Invitrogen). […]
# In each image, a region of interest (ROI) that represented the dentate gyrus was determined using free-hand drawing. For each ROI, the mean gray values (MGV), representing the area fraction with immunoreactivity for GFAP, were measured. To measure the fluorescence intensity of GFAP immunostaining in the dentate gyrus, maximum intensity projections of confocal z-stacks acquired from sagittal brain sections were converted into 8-bit greyscale images with 256 scales (pixel intensity 0 corresponding to no signal and 255 to maximal signal) by ImageJ software. […] For the GFAP+ cell counting, cell to be counted must had at least half of the cell nucleus visible on the edge of the ROI and cells were not included in the analysis if they were adherent to blood vessel walls.
# [5] = tested on: mice subjected to restraint stress; assay: Elevated plus maze after restraint stress (Example 1, Experiment 1); assay type: in vivo, C57BL/6 mice; settings: RS mice, post-treatment with cotinine
# Protocol: as §1, §2
# Anxiety was assessed through the elevated plus maze (EPM). EPM is considered one of the best choices to test anxiolytic effects of drugs. This test is based on the observation that most of the time higher anxiety levels will diminish the time exploring new environments as a form to avoid danger (open arms).
# To determine the level of anxiety, mice were tested in the EPM. […]
# [6] = cotinine IN administered after RS
structure (smiles),measurement,setting,value
"CN1C(=O)CC[C@H]1c1cccnc1 [Cotinine, (5S)-1-methyl-5-(3-pyridyl) pyrrolidin-2-one]",number of entries to the light zone (light-dark box),[1],almost completely restored the number of entries to the light zone
same,distance traveled in the open field test,[2],44±18 m
same,number of hippocampal GFAP+ cells counted,"GFAP [3]; Ctrl 144, RS 97",140
same,GFAP IR in the frontal cortex,GFAP [3]; [6],90 % of control values
same,GFAP IR in the hippocampus,GFAP [3]; [6],84 % of control value
same,GFAP+ cell density in hippocampal regions,"GFAP [3]; restrained mice, CA1 p<0.01, CA2 p<0.05, DG p<0.01",significantly higher in the cotinine-treated restrained mice relative to vehicle-treated restrained mice
same,GFAP+ cell density in control (non-stressed) mice,GFAP [3]; vehicle-treated vs cotinine-treated control mice,No significant differences
same,mean gray value (GFAP IR intensity) in the dentate gyrus,GFAP [4],significant increase of the IR intensity
same,number of GFAP+ cells (cell density) in the dentate gyrus,GFAP [4],significant increase of cell density
same,percent area fraction occupied by GFAP+ cells in the dentate gyrus,GFAP [4],significant increase in the GFAP+ fraction area
same,locomotor activity (distance traveled) in the EPM,[5]; Tukey p<0.01,reduced significantly the locomotor activity in the RS mice
same,rearing activity in the elevated plus maze,[5]; vs Ctrl non-restrained mice,did not show differences with Ctrl non-restrained mice
